Residue numbers refer to the chain shown, from its start. Like-named read-outs stand apart in the source and are kept apart here.

Assay [1] has as its system olfactory epithelium of freshwater adapted juvenile Atlantic salmon. The assay is described as follows: Extracellular electrical potentials (EEG) from olfactory nerve. The class given is in vivo. The conditions noted are these: for effect on olfactory epithelium response to mammalian finger rinse: 5 mM Ca2+ or 50 micromolar Gd3+; for effect on olfactory nerve response to 500 micromolar L-alanine: 5 mM Ca2+, 50 micromolar Gd3+ or 250 mM NaCl; for olfactory nerve response to stimulus: 500 micromolar L-alanine, 1 mM Ca2+, 250 mM NaCl, 50 micromolar Gd3+. The source says:
Physiol. A 127:157–166 (1975), and Hubbard, P C, et al., Olfactory sensitivity to changes in environmental Ca2+ in the marine teleost Sparus Aurata, J. Exp. Biol. 203:3821–3829 (2000). After anaesthetizing the fish, it was placed in V-clamp apparatus where its gills were irrigated continuously with aerated seawater and its nasal lamellae bathed continuously by a stream of distilled water via a tube held in position in the inhalant olfactory opening. The olfactory nerves of the fish were exposed by removal of overlying bony structures. Stimuli were delivered as boluses to the olfactory epithelium via a 3 way valve where 1 cc of water containing the stimulus was rapidly injected into the tube containing a continuously stream of distilled water. […] Using this experimental approach, stable and reproducible recordings could be obtained for up to 6 hr after the initial surgery on the fish.

The subject of assay [2] is SKCaR. Nature of the assay: FURA 2 based assay of SKCaR activation in transfected HEK cells. The class given is cell-based, dogfish shark (Squalus acanthias). The settings on record: for effect of amino acids on SKCaR's response to Ca2+: 10 mM Phe, 10 mM Ile or AA Mixture, FURA-2; for alteration in SKCaR sensitivity to Ca2+: increasing extracellular NaCl, sucrose as osmolality control. From the text: SKCaR cDNA was ligated into the mammalian expression vector PCDNA II and transfected into HEK cells using standard techniques. The presence of SKCaR protein in transfected cells was verified by western blotting. Activation of SKCaR by extracellular Ca2+, Mg2+ or NaCl was quantified using a well characterized FURA 2 based assay where increases in intracellular Ca2+ produced by SKCaR activation are detected using methodology published previously by Bai, M., S. Quinn, S. Trvedi, O. Kifor, S. H. S. Pearce, M. R. Pollack, K. Krapcho, S. C. Hebert and E. M. Brown. Expression and characterization of inactivating and activating mutations in the human Ca2+-sensing receptor. J. Biol. Chem., 32:19537–19545 (1996); and expressed as % normalized intracellular calcium response to receptor activation.
Full length recombinant dogfish (Squalas acanthias) shark kidney calcium receptor (SKCaR) was expressed in human embryonic kidney cells using methods described herein. The ability of SKCaR to respond to individual amino acids as well as various mixtures was quantified using FURA-2 ratio imaging fluorescence.
Baseline extracellular Ca^2+ concentration was 0.5 mM. Aliquots of Ca^2+ were added to produce final extracellular concentrations of 2.5 mM, 5 mM, 7.5 mM, 10 mM and 20 mM Ca^2+ with changes in the fluorescence recorded. Note that increases in cell fluorescence were greater in the presence of 10 mM Phe for extracellular Ca^2+ concentrations less than 10 mM.

Assay [3] deals with T1, HuPCaR (Homo sapiens, UniProt P41180, R227L).
T1 sequence (P41180 20-1078 R227L): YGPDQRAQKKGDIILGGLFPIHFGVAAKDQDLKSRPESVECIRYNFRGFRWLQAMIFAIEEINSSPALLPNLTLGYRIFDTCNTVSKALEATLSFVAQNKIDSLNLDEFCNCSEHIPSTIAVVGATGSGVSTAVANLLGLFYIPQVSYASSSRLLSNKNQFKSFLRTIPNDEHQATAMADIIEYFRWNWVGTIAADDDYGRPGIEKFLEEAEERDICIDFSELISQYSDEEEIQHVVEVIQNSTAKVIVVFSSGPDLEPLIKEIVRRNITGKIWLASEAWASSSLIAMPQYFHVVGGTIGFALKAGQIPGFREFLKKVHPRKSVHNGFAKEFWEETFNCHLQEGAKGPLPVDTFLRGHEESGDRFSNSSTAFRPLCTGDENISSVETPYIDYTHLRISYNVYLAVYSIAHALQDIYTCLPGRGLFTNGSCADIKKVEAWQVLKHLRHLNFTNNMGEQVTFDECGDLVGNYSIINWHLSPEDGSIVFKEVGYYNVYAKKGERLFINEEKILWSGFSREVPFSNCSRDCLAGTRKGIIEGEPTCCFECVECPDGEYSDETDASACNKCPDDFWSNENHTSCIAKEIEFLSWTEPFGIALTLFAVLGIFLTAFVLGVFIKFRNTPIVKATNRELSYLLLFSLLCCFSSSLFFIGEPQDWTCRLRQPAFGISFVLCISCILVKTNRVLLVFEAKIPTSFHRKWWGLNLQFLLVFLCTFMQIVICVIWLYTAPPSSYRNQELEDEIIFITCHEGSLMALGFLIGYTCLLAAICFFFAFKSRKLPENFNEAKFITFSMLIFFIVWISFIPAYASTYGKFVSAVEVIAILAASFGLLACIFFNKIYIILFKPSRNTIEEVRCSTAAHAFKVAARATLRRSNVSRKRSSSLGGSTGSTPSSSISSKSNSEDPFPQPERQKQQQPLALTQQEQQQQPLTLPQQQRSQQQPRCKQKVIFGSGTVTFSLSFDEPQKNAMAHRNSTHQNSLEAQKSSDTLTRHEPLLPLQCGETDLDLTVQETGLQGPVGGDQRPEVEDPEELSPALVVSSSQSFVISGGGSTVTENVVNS
The settings on record: HuPCaR AA #227 altered to Leu; read-out: EC50 Ca2+; cited from earlier work.

Assay [4] deals with T2, HuPCaR (Homo sapiens, UniProt P41180).
T2 sequence (P41180 20-1078): T1 sequence (P41180 20-1078 R227L) with L208R
The settings on record: HuPCaR with Arg at AA #227; read-out: EC50 Ca2+; cited from earlier work.

Where [5] appears, read: normalized to response to 10 mM Ca2+.

With `[Gd+3]` [Gd^3+, gadolinium], in assay [1], the “effect on olfactory epithelium response to mammalian finger rinse” value was “reversibly ablated the response”, the “effect on olfactory nerve response to 500 micromolar L-alanine” value (“effect on olfactory nerve response” for short) is recorded as “complete loss of the corresponding response” and the “olfactory nerve response to stimulus” value is “obtained a response”. Further, in assay [1] (setting [5]), the “concentration at which olfactory epithelium responses occur” value was in the range of 1 to 10 µM.
For the compound `N[C@@H](Cc1ccccc1)C(=O)O` [Phe, L-Phenylalanine], the “effect of amino acids on SKCaR's response to Ca2+” value in assay [2] is on record as “increase SKCaR's response to a given Ca^2+ concentration”. For the same compound, the “increases in cell fluorescence” value in assay [2] (10 mM, extracellular Ca2+ less than 10 mM) was “greater”.
With `OC[C@H]1O[C@@](CO)(O[C@H]2O[C@H](CO)[C@@H](O)[C@H](O)[C@H]2O)[C@@H](O)[C@@H]1O` [sucrose], the “alteration in SKCaR sensitivity to Ca2+” value in assay [2] is given as “not observed”.
For the compound `[Cl-].[Na+]` [NaCl, sodium chloride], in assay [1], the “effect on olfactory nerve response” value is “resulted initially in a similar response” and the “olfactory nerve response to stimulus” value is listed as “produce responses in EEG activity”. Moreover, the “concentration until which olfactory epithelium is unresponsive” value in assay [1] (in vivo) was 250 millimolar. For the same compound, in assay [2], the “alteration in SKCaR sensitivity to Ca2+” value is listed as “reduce the sensitivity of SKCaR to Ca2+”.
Regarding `[Ca+2]` [Ca2+, calcium], the EC50 in assay [3] was 9.3 mM; in assay [4], 4 mM; in assay [1] (normalized to response to 10 mM Ca2+, read-out: half maximal excitatory response (EC50)) it was 1 to 10 µM; in assay [2] (depending on the extracellular concentration of NaCl, read-out: half maximal activation of SKCaR by extracellular Ca2+), 1 to 15 mM; in assay [2] (extracellular NaCl 50 mM, read-out: EC50 for Ca2+) it was less than 5 mM; in assay [2] (extracellular NaCl 550 mM, read-out: EC50 for Ca2+) it was approximately 18 mM. The “effect on olfactory epithelium response to mammalian finger rinse” value in assay [1] is “reversibly ablated the response”. In addition, the “effect on olfactory nerve response” value in assay [1] is “complete loss of the corresponding response”. For the same compound, in assay [1], the “olfactory nerve response to stimulus” value was “produce responses in EEG activity”. Also, the “effect of added Ca2+ on sensitivity of SKCaR to Mg2+” value in assay [2] (3 mM Ca2+ added, as a function of extracellular NaCl) is given as “increases the sensitivity of SKCaR to Mg2+”.
Take `[Mg+2]` [Mg2+, magnesium]: the “concentration at which olfactory epithelium responses occur” value in assay [1] (setting [5]) was in the range of 10 to 100 µM. In addition, the “range of extracellular Mg2+ in which SKCaR is activated” value in assay [2] fell in the range of 5 to 40 mM. Moreover, the EC50 in assay [2] (extracellular NaCl 50 mM, read-out: EC50 for Mg2+) was less than 20 mM; in assay [2] (extracellular NaCl 550 mM, read-out: EC50 for Mg2+) it was approximately 80 mM.
On to `CC[C@H](C)[C@H](N)C(=O)O` [Ile, L-Isoleucine], for which, in assay [2], the “effect of amino acids on SKCaR's response to Ca2+” value was “increase SKCaR's response to a given Ca^2+ concentration”.
`C[C@H](N)C(=O)O` [L-alanine]: the “duration of olfactory nerve response” value in assay [1] (500 micromolar) is “approximately 2 seconds”. Further, the “olfactory nerve response to stimulus” value in assay [1] was “large increases in both the firing frequency and amplitude in the olfactory nerve”.

Values taken from US7101988B2, “Polyvalent cation-sensing receptor in Atlantic salmon” (MariCal, Inc., priority 2000, dated 2006).
